Results from patent publication US11178873B2, “Cyclic N-carboxamide compounds useful as herbicides” (FMC CORPORATION, priority 2015, dated 2021).

Legend:
Assay type in all cases: in vivo
[1] = system: pigweed (Amaranthus retroflexus); experiment: Test A preemergence, pigweed; settings: 0 to 100 scale, 0 no effect, 100 complete control
How it was run: (§1)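 Preemergence treatment was a directed soil spray; postemergence plants were 2 to 10 cm tall at the one- to two-leaf stage. Compounds were formulated in solvent with surfactant and grown in loam/sand in the greenhouse. Injury was scored visually against untreated controls after ~10 d, on a 0 (no effect) to 100 (complete control) scale.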

[2] = system: wheat (Triticum aestivum); experiment: Test A preemergence, wheat; settings: 0 to 100 scale, 0 no effect, 100 complete control
From the text: (§2) Seeds of plant species selected from barnyardgrass (Echinochloa crus-galli), crabgrass, large (large crabgrass, Digitaria sanguinalis), kochia (Kochia scoparia), ragweed (common ragweed, Ambrosia elatior), morningglory (Ipomoea spp.), velvetleaf (Abutilon theophrasti), ryegrass, Italian (Italian ryegrass, Lolium multiflorum), foxtail, giant (giant foxtail, Setaria faberii), wheat (Triticum aestivum), corn (Zea mays), and pigweed (Amaranthus retroflexus), were planted into a blend of loam soil and sand and treated preemergence with a directed soil spray using test chemicals formulated in a non-phytotoxic solvent mixture which included a surfactant. At the same time, plants selected from these crop and weed species and also blackgrass (Alopecurus myosuroides), and galium (catchweed bedstraw, Galium aparine), were planted in pots containing the same blend of loam soil and sand and treated with postemergence applications of test chemicals formulated in the same manner. Plants ranged in height from 2 to 10 cm and were in the one- to two-leaf stage for the postemergence treatment. Treated plants and untreated controls were maintained in a greenhouse for approximately 10 d, after which time all treated plants were compared to untreated controls and visually evaluated for injury. Plant response ratings, summarized in Table A, are based on a 0 to 100 scale where 0 is no effect and 100 is complete control. A dash (-) response means no test result.

corn (Zea mays) [3] = experiment: Test A preemergence, corn; settings: 0 to 100 scale, 0 no effect, 100 complete control
From the text: as §2

[4] = system: pigweed (Amaranthus retroflexus); experiment: Test A postemergence, pigweed; settings: 0 to 100 scale, 0 no effect, 100 complete control
How it was run: as §1

[5] = system: crabgrass, large (large crabgrass, Digitaria sanguinalis); experiment: Test A preemergence, crabgrass, large; settings: 0 to 100 scale, 0 no effect, 100 complete control
From the text: as §2

[6] = system: foxtail, giant (giant foxtail, Setaria faberii); experiment: Test A preemergence, foxtail, giant; settings: 0 to 100 scale, 0 no effect, 100 complete control
How it was run: as §1

corn (Zea mays) [7] = experiment: Test A postemergence, corn; settings: 0 to 100 scale, 0 no effect, 100 complete control
How it was run: as §1

[8] = system: crabgrass, large (large crabgrass, Digitaria sanguinalis); experiment: Test A postemergence, crabgrass, large; settings: 0 to 100 scale, 0 no effect, 100 complete control
From the text: as §2

[9] = system: ducksalad (Heteranthera limosa); experiment: Test B flooded paddy test, ducksalad; settings: Flood, 250 g ai/ha; scale 0 to 100 (0 no effect, 100 complete control); 13 to 15 d
How it was run: (§3)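 Plants grown to the 2-leaf stage. At treatment, pots were flooded to 3 cm above the soil, compound was applied directly to the paddy water, and that depth was held throughout. After 13 to 15 d in the greenhouse, response was rated visually against controls on a 0 (no effect) to 100 (complete control) scale.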

[10] = system: barnyardgrass (Echinochloa crus-galli); experiment: Test B flooded paddy test, barnyardgrass; settings: Flood, 250 g ai/ha; scale 0 to 100 (0 no effect, 100 complete control); 13 to 15 d
How it was run: as §3

[11] = system: barnyardgrass (Echinochloa crus-galli); experiment: Test A postemergence, barnyardgrass; settings: 0 to 100 scale, 0 no effect, 100 complete control
How it was run: as §1

[12] = system: foxtail, giant (giant foxtail, Setaria faberii); experiment: Test A postemergence, foxtail, giant; settings: 0 to 100 scale, 0 no effect, 100 complete control
How it was run: as §1

[13] = system: morningglory (Ipomoea spp.); experiment: Test A preemergence, morningglory; settings: 0 to 100 scale, 0 no effect, 100 complete control
From the text: as §2

[14] = system: sedge, umbrella (small-flower umbrella sedge, Cyperus difformis); experiment: Test B flooded paddy test, sedge, umbrella; settings: Flood, 250 g ai/ha; scale 0 to 100 (0 no effect, 100 complete control); 13 to 15 d
How it was run: as §3

[15] = system: velvetleaf (Abutilon theophrasti); experiment: Test A preemergence, velvetleaf; settings: 0 to 100 scale, 0 no effect, 100 complete control
From the text: as §2

[16] = system: wheat (Triticum aestivum); experiment: Test A postemergence, wheat; settings: 0 to 100 scale, 0 no effect, 100 complete control
How it was run: as §1

[17] = system: velvetleaf (Abutilon theophrasti); experiment: Test A postemergence, velvetleaf; settings: 0 to 100 scale, 0 no effect, 100 complete control
From the text: as §2

rice (Oryza sativa) = experiment: Test B flooded paddy test, rice; settings: Flood, 250 g ai/ha; scale 0 to 100 (0 no effect, 100 complete control); 13 to 15 d
How it was run: as §3

[18] = system: barnyardgrass (Echinochloa crus-galli); experiment: Test A preemergence, barnyardgrass; settings: 0 to 100 scale, 0 no effect, 100 complete control
How it was run: as §1

[19] = system: morningglory (Ipomoea spp.); experiment: Test A postemergence, morningglory; settings: 0 to 100 scale, 0 no effect, 100 complete control
From the text: as §2

O=C(Nc1ccccc1C(F)(F)F)N1C(=O)OCC1c1ccc(F)c(F)c1 (stereo not drawn) [Compound 1]
Plant response rating, Pigweed ([1]; 125 g ai/ha): 0
Plant response rating, Pigweed ([1]; 500 g ai/ha): 0
Plant response rating, Wheat ([2]; 125 g ai/ha): 0
Plant response rating, Wheat ([2]; 500 g ai/ha): 0
Plant response rating, Corn (corn (Zea mays) [3]; 125 g ai/ha): 0
Plant response rating, Corn (corn (Zea mays) [3]; 500 g ai/ha): 0
Plant response rating, Pigweed ([4]; 125 g ai/ha): 0
Plant response rating, Pigweed ([4]; 500 g ai/ha): 0
Plant response rating, Crabgrass, Large ([5]; 125 g ai/ha): 30
Plant response rating, Crabgrass, Large ([5]; 500 g ai/ha): 70
Plant response rating, Foxtail, Giant ([6]; 125 g ai/ha): 0
Plant response rating, Foxtail, Giant ([6]; 500 g ai/ha): 0
Plant response rating, Corn (corn (Zea mays) [7]; 125 g ai/ha): 0
Plant response rating, Corn (corn (Zea mays) [7]; 500 g ai/ha): 0
Plant response rating, Crabgrass, Large ([8]; 125 g ai/ha): 0
Plant response rating, Crabgrass, Large ([8]; 500 g ai/ha): 20
Plant response rating, Ducksalad [9]: 0
Plant response rating, Barnyardgrass [10]: 0
Plant response rating, Barnyardgrass ([11]; 125 g ai/ha): 0
Plant response rating, Barnyardgrass ([11]; 500 g ai/ha): 0
Plant response rating, Foxtail, Giant ([12]; 125 g ai/ha): 0
Plant response rating, Foxtail, Giant ([12]; 500 g ai/ha): 0
Plant response rating, Morningglory ([13]; 125 g ai/ha): 0
Plant response rating, Morningglory ([13]; 500 g ai/ha): 0
Plant response rating, Sedge, Umbrella [14]: 0
Plant response rating, Velvetleaf ([15]; 125 g ai/ha): 0
Plant response rating, Velvetleaf ([15]; 500 g ai/ha): 0
Plant response rating, Wheat ([16]; 125 g ai/ha): 0
Plant response rating, Wheat ([16]; 500 g ai/ha): 0
Plant response rating, Velvetleaf ([17]; 125 g ai/ha): 0
Plant response rating, Velvetleaf ([17]; 500 g ai/ha): 0
Plant response rating, Rice (rice (Oryza sativa)): 0
Plant response rating, Barnyardgrass ([18]; 125 g ai/ha): 0
Plant response rating, Barnyardgrass ([18]; 500 g ai/ha): 0
Plant response rating, Morningglory ([19]; 125 g ai/ha): 0
Plant response rating, Morningglory ([19]; 500 g ai/ha): 0

O=C(Nc1ccccc1F)N1C(=O)OCC1c1ccc(F)c(F)c1 (stereo not drawn) [Compound 3, 4-(3,4-difluorophenyl)-N-(2-fluorophenyl)-2-oxo-3-oxazolidinecarboxamide]
Plant response rating, Pigweed ([1]; 1000 g ai/ha): 0
Plant response rating, Wheat ([2]; 1000 g ai/ha): 0
Plant response rating, Corn (corn (Zea mays) [3]; 1000 g ai/ha): 0
Plant response rating, Pigweed ([4]; 1000 g ai/ha): 0
Plant response rating, Crabgrass, Large ([5]; 1000 g ai/ha): 90
Plant response rating, Foxtail, Giant ([6]; 1000 g ai/ha): 50
Plant response rating, Corn (corn (Zea mays) [7]; 1000 g ai/ha): 0
Plant response rating, Crabgrass, Large ([8]; 1000 g ai/ha): 80
Plant response rating, Barnyardgrass ([11]; 1000 g ai/ha): 20
Plant response rating, Foxtail, Giant ([12]; 1000 g ai/ha): 40
Plant response rating, Morningglory ([13]; 1000 g ai/ha): 0
Plant response rating, Velvetleaf ([15]; 1000 g ai/ha): 0
Plant response rating, Wheat ([16]; 1000 g ai/ha): 0
Plant response rating, Velvetleaf ([17]; 1000 g ai/ha): 0
Plant response rating, Barnyardgrass ([18]; 1000 g ai/ha): 0
